# Results taken from US11058737B2, “Use of Euycoma longifolia extract in alleviating symptoms and/or conditions associated with hormonal imbalance in females” ([…] BERHAD, priority 2018, dated 2021).
# What was measured:
# Assay type in all cases: in vivo, Sprague Dawley rats
# ovariectomized rat model [1] = experiment: Reproductive hormone levels in rat serum (FSH, LH, progesterone, estrogen, testosterone; CLIA); settings: ovariectomized rats, 10 mg/kg intramuscular once every 4 weeks, 8 weeks
# Method: (§1) The test item, i.e. aqueous extract of Eurycoma longifolia, was studied for its capabilities or effect in relation to the alleviation or treatment of menopause symptoms and hormonal activity against ovariectomized rat model in vivo.
# (§2) 48 female Sprague dawley rats were ovariectomized or sham operated. Both sham and ovariectomized rats (n=8) received the vehicle. The remaining 3 group ovariectomized rats were orally administrated with Eurycoma longifolia aqueous extract 100 mg/kg, 300 mg/kg and 500 mg/kg b.w. The treatment continued for 8 weeks. Group 6 ovariectomized rats received testosterone undecanoate (10 mg/kg b.w) through the route of intramuscular injection once in every 4 weeks for 8 weeks. At week 8 of the last dose, sexual behaviors were recorded. Blood was collected for biochemical analysis. Calcium, phosphate, bone alkaline phosphatase (ALP), osteocalcin and hormone profile estimation was done.
# (§3) Test System • Animal species: Rats • Strain: Sprague Dawley • Justification for Selection of Species: Recommended and Justified by sponsor • Sex: Female • Age: 10-12 weeks (Mohamed et al, 2016) • Source of supply: In house breed • No. of groups: 6 • Group 1: Sham operated group (surgically opened but no ovariectomy) • Group 2: Ovariectomy group (Negative control) • Group 3: Ovariectomy+Low dose extract • Group 4: Ovariectomy+Middle dose extract • Group 5: Ovariectomy+High dose extract • Group 6: Ovariectomy+Testosterone undecanoate (Positive control) • No. of Animals/Group: 8 females/group • Age at Treatment: 12 weeks • Body Weight Range at Receipt: 120-250 gms • Animal Identification: Each animal will be marked by picric acid and numbering will be given individually to each animal. • Acclimatization: The rats were acclimatized for 1 week before treatment.
# (§4) In Group 2, only ovariectomy was performed. Group 3, Group 4 and Group 5 received the Eurycoma longifolia aqueous extract daily at low dose (100 mg/kg), middle dose (300 mg/kg) and high dose (500 mg/kg) at respective concentrations orally for 8 weeks, whereas Group 6 received Testosterone undecanoate (10 mg/kg) intramuscular injection once in every 4 weeks for 8 weeks. • (i) Surgical Procedure • Anesthesia was induced by intraperitoneal injection of ketamine HCL (80 mg/kg) and the depth of anesthesia was checked by monitoring respiratory rate or simply testing the animal response to gentle pressure on the hind paws. After the onset of anesthesia, animal was placed under operating area. Clippers were used to clip the skin and shaved fur bilaterally to expose skin. The procedure was carried out by making two incisions to separately reach each ovary. Shaved skin was swab with 70% (v/v) ethanol. Anaesthetized animal was placed on the operating table with its back exposed and its tail towards the operator. A single dorsal incision (1 cm) was made penetrating the skin using small scissors. Incision was made in the lower back, directly below the bottom of the rib cage. Gently subcutaneous connective tissue was made free from the underlying muscle on each side using blunt forceps. Ovary was located under the thin muscle layer and a small incision (less than 1 cm) was made on each side to gain entry to the peritoneal cavity. The edge of the incision was holded securely with tooth forceps and the ovarian fat pad was retracted surrounding ovaries with blunt forceps to expose oviduct. […] 30 gms feed was added daily to each animal in the morning time and leftover feed was recorded on next day from the same animal cage. […]
# ovariectomized rat model [2] = experiment: Biochemical estimations: serum calcium, phosphate, bone alkaline phosphatase, osteocalcin; settings: ovariectomized rats
# Method: as §1, §2, §3, §4
# ovariectomized rat model [3] = experiment: Uterus weight at necropsy; settings: ovariectomized rats, 10 mg/kg intramuscular once every 4 weeks
# Method: as §2, with “done. […]” for “done.”
# (§5) In Group 2, only ovariectomy was performed. […] 30 gms feed was added daily to each animal in the morning time and leftover feed was recorded on next day from the same animal cage. […]
# ovariectomized rats = experiment: Clinical signs of toxicity and mortality in ovariectomized rat model; settings: 10 mg/kg intramuscular once every 4 weeks, 8 weeks
# Method: as §2, with “done. […]” for “done.”
# as §5
# [4] = Body weight of ovariectomized rats; settings: 10 mg/kg intramuscular once every 4 weeks
# Method: as §2, §3
# as §4, with “oviduct. Ovary was removed by gently severing the oviduct, using sterile, small scissors. Uterus was replaced and remaining part of the oviduct back into the abdominal cavity. Muscle layer was sutured and procedure was repeated for the other ovary.” for “oviduct.”
# [5] = serum, 10 mg/kg intramuscular once every 4 weeks, 8 weeks, 10 mg/kg
structure (smiles),measurement,setting,value
CCCCCCCCCCC(=O)O[C@H]1CC[C@H]2[C@@H]3CCC4=CC(=O)CC[C@]4(C)[C@H]3CC[C@]12C [Testosterone undecanoate],Estrogen,ovariectomized rat model [1],12.35 ± 0.25 pg/mL
same,FSH,ovariectomized rat model [1],3.96±0.22 mlU/ml
same,LH,ovariectomized rat model [1],3.76±0.11 mlU/ml
same,Progesterone,ovariectomized rat model [1],3.31 ± 0.15 ng/mL
same,Testosterone,ovariectomized rat model [1],13.01 ± 0.41 ng/mL
same,"serum osteocalcin levels, change","ovariectomized rat model [2]; positive control 10 mg/kg intramuscular, no significant changes",Decreased serum osteocalcin levels
same,Osteocalcin,"ovariectomized rat model [2]; serum, 10 mg/kg intramuscular once every 4 weeks, 8 weeks",7.26 ± 0.20 ng/mL
same,Bone Alkaline phosphatase,ovariectomized rat model [2]; [5],3.06 ± 0.12 ng/mL
same,Calcium,ovariectomized rat model [2]; [5],8.48 ± 0.16 mg/dL
same,Phosphate,ovariectomized rat model [2]; [5],3.29 ± 0.13 mg/dL
same,"uterus weight, effect after ovariectomy",ovariectomized rat model [3],prevented the ovariectomy induced loss of uterus weight
same,UTERUS WEIGHT,"ovariectomized rat model [3]; 8 weeks, 10 mg/kg",389.74 ± 8.26 mg
same,No. of Mortality/No. of Animals Dosed,ovariectomized rats,0/8
same,Body Weight,[4]; Basal,185.0 ± 3.35
same,Body Weight,[4]; Week 1,196.0 ± 3.17
same,Body Weight,[4]; Week 2,207.4 ± 2.99
same,Body Weight,[4]; Week 3,217.8 ± 3.31
same,Body Weight,[4]; Week 4,229.4 ± 3.24
same,Body Weight,[4]; Week 5,238.6 ± 3.33
same,Body Weight,[4]; Week 6,244.8 ± 3.53
same,Body Weight,[4]; Week 7,252.9 ± 4.37
same,Body Weight,[4]; Week 8,259.3 ± 4.85
same,Percentage of Weight Gain,[4]; from basal to Week 1,5.95%
same,Percentage of Weight Gain,[4]; from basal to Week 2,12.11%
same,Percentage of Weight Gain,[4]; from basal to Week 3,17.73%
same,Percentage of Weight Gain,[4]; from basal to Week 4,24.00%
same,Percentage of Weight Gain,[4]; from basal to Week 5,28.97%
same,Percentage of Weight Gain,[4]; from basal to Week 6,32.32%
same,Percentage of Weight Gain,[4]; from basal to Week 7,36.70%
same,Percentage of Weight Gain,[4]; from basal to Week 8,40.16%
